{
  "source": "patent US11116727B2",
  "about": "“Preparation containing 6,7-unsaturated-7-carbamoyl morphinan derivatives” (Shionogi & Co., Ltd., priority 2012, dated 2021)",
  "test": "Water solubility of the p-toluenesulfonic acid salt at different pH",
  "type": "physicochemical",
  "protocol": "The water solubility of p-toluenesulfonic acid salt of the compound represented by the above formula (IA), namely 17-(cyclopropylmethyl)-6,7-didehydro-4,5α-epoxy-3,6,14-trihydroxy-N-[2-(3-phenyl-1,2,4-oxadiazol-5-yl) propan-2-yl]morphinan-7-carboxamide 4-methylbenzene sulfonic acid is more than 1,000 μg/mL in pH 1 or 4, but the water solubility in pH 7 decreases than the solubility in pH 1 or 4.",
  "data": [
    {"molecule": "CC(C)(NC(=O)C1=C(O)[C@@H]2Oc3c(O)ccc4c3[C@@]23CCN(CC2CC2)[C@H](C4)[C@]3(O)C1)c1nc(-c2ccccc2)no1", "note": "[17-(cyclopropylmethyl)-6,7-didehydro-4,5α-epoxy-3,6,14-trihydroxy-N-[2-(3-phenyl-1,2,4-oxadiazol-5-yl)propan-2-yl]morphinan-7-carboxamide 4-methylbenzenesulfonic acid]", "values": [
      {"measurement": "water solubility", "setting": "pH 7, compared with pH 1 or 4", "value": "decreases"},
      {"measurement": "solubility", "setting": "water, simulated gastric fluid, pH 1 or 4", "value": "> 1000", "unit": "µg/mL"}
    ]}
  ]
}
